The results in this text go back to PubChem BioAssay AID1996.

≈ marks a conversion by molar mass, not a printed value.

The conditions of this data set: buffer; pH 7.4; 200.0 µM.
One may read the kinetic solubility as solubility judged after dilution from a stock solution rather than from solid. With `Cc1ccc2c(CN3CCN(Cc4ccccc4)CC3)cc(=O)oc2c1`, the kinetic solubility worked out at 0.0494 mg/mL (≈ 142 µM).

The compound `Cc1ccc(NC(=O)c2ccc(Cl)nc2)cc1` displayed a kinetic solubility of 0.0093 mg/mL (≈ 37.7 µM). In turn, `CCC(C)c1ccc(S(=O)(=O)Nc2cccnc2)cc1.Cl` (stereo not given) registered a kinetic solubility of 0.0359 mg/mL. For `CCOC(=O)c1cc2c(n(-c3ccc(Cl)cc3)c1=O)CCCC2=O` the value was > 0.0519 mg/mL. For `COc1ccc(N2CCOCC2)c(NC(=O)c2cc3ccccc3o2)c1` the value was < 0.0004 mg/mL.

On to `O=C(NCc1ccccc1)C(=O)Nc1nccs1`, for which the kinetic solubility is 0.0031 mg/mL (≈ 11.9 µM).

Consider `COc1ccc2c(C#N)c3ccccn3c2c1`, for which the kinetic solubility amounted to 0.0009 mg/mL (≈ 4.05 µM).

In the case of `CCNS(=O)(=O)c1ccc(CCC(=O)NCc2ccncc2)cc1`, the solubility (kinetic) is > 0.0521 mg/mL. With `CCOC(=O)CSc1nnc(-c2cccnc2)n1C`, the solubility (kinetic) was > 0.0417 mg/mL. Next, `CCCCN1C(=O)C(=O)N(CC(=O)c2ccc[nH]2)C1=O`: > 0.0416 mg/mL. For `O=C1CSC(c2ccccc2)N1c1ccc(F)cc1F` (stereo not given) the value was 0.038 mg/mL (≈ 130 µM); for `O=C(NCCCN1CCOCC1)C(=O)NCCc1ccccc1`, > 0.0479 mg/mL; for `CCCc1cc(=O)[nH]c(SCC(=O)N2CCCC2=O)n1`, > 0.0443 mg/mL. For `COc1ccc(CNC(=O)C(C)N(C)Cc2cccc(F)c2)cc1` (stereo not given) the value was 0.0261 mg/mL (≈ 79 µM); for `O=C(Nc1ccc(F)c(Cl)c1)c1cncs1`, > 0.0385 mg/mL; for `CC1=C(C)CC(C(=O)NC2CCN(C(C)C)CC2)C(C(=O)O)C1` (stereo not given), > 0.0484 mg/mL. On to `COCc1cc(=O)[nH]c(-c2csc(C)n2)n1`, for which the solubility (kinetic) is > 0.0356 mg/mL.

In the case of `CCOC(=O)Cc1csc(NC(=O)/C=C/c2ccccc2Cl)n1`, the kinetic solubility is < 0.0004 mg/mL. For `CCCNC(=O)NC(=O)c1cnccc1C(F)(F)F`, the kinetic solubility was found to be 0.0348 mg/mL (≈ 126 µM).

As to `CC(C)(C)OC(=O)NCCc1n[nH]c(=S)o1`, the solubility (kinetic) is > 0.0368 mg/mL. Next, `Cc1[nH]c2ccccc2c1C(=O)CN1CC(C)OC(C)C1` (stereo not given): 0.0394 mg/mL (≈ 138 µM); `COc1cccc(C=Nc2ccc3c(c2)CCC3)c1O`: 0.0268 mg/mL (≈ 100 µM); `COC(=O)c1cc(OC)nc2ccc(Br)cc12`: < 0.0006 mg/mL. `Cc1cccc(Nc2nc(CC(=O)O)cs2)c1` gave a solubility (kinetic) of 0.0246 mg/mL (≈ 99.1 µM). For the compound `CC(C)(C)NC(=O)c1ccc2c(c1)CCO2`, the solubility (kinetic) is > 0.0329 mg/mL.

In the case of `O=C(CNC(=O)c1ccc(Br)o1)NC12CC3CC(CC(C3)C1)C2`, the solubility (kinetic) stood at 0.0505 mg/mL (≈ 132 µM). For `COc1ccc2c([N+](=O)[O-])c(Cl)[nH]c2c1` the value was 0.0323 mg/mL (≈ 143 µM); for `CCN(CC)S(=O)(=O)c1ccc(N2CCOCC2)c(NC(=O)c2ccco2)c1`, > 0.0611 mg/mL. For `Cc1ccc(NC(=O)CNC(=O)c2ccco2)cc1` the value was > 0.0387 mg/mL; for `COC(=O)C1SCCN1S(=O)(=O)c1ccc(Cl)cc1` (stereo not given), > 0.0483 mg/mL. With `O=C(NC1=NCCS1)c1ccccc1Cl`, the solubility (kinetic) was > 0.0361 mg/mL. Consider `N#Cc1ccccc1COC(=O)c1cccc(S(=O)(=O)N2CCCC2)c1`, for which the solubility (kinetic) was determined as 0.012 mg/mL (≈ 32.4 µM).

Regarding `Cn1cnnc1SCC(=O)NCCC1=CCCCC1`, the solubility (kinetic) is > 0.0421 mg/mL.

In turn, `N#Cc1ccsc1NC(=O)COC(=O)c1ccc(Br)o1` returned a solubility (kinetic) of 0.0105 mg/mL (≈ 29.6 µM). `Cc1cc(NC(=O)CN(C)C)c([N+](=O)[O-])cc1C` yielded a solubility (kinetic) of 0.0041 mg/mL (≈ 16.3 µM). For `O=C(Nc1ccccc1F)C1CCCC1` the value was 0.0234 mg/mL (≈ 113 µM); for `O=C(Cc1ccccc1)Nc1ccc(NC(=O)c2cccnc2)cc1`, 0.0032 mg/mL (≈ 9.66 µM); for `CCn1c(O)c(C=NCCN2CCOCC2)c(=O)n(CC)c1=S`, > 0.0511 mg/mL. In turn, `CCC/C(O)=C1\C(=O)CC(C)(C)CC1=Nc1cccc([N+](=O)[O-])c1` came in with a kinetic solubility of 0.0426 mg/mL (≈ 129 µM). Turning to `O=C(CCC1CCCCC1)NCCN1CCOCC1`, the kinetic solubility is > 0.0403 mg/mL. The compound `N/C(=N\OC(=O)Nc1ccccc1)c1ncc([N+](=O)[O-])s1` yielded a kinetic solubility of 0.0038 mg/mL (≈ 12.4 µM).

As to `O=C(OC(C(=O)NCc1ccccc1)c1ccccc1)c1ccco1` (stereo not given), the solubility (kinetic) came out at 0.0418 mg/mL (≈ 125 µM). Compound `CC(=O)c1ccc(NC(=O)/C(C#N)=C/c2ccncc2)cc1` came in with a kinetic solubility of 0.0432 mg/mL (≈ 148 µM). The compound `CC(NCCN(C)C)C(=O)C12CC3CC(CC(C3)C1)C2.Cl` (stereo not given) showed a solubility (kinetic) of 0.0524 mg/mL. For `O=C(c1ccncc1)N1CCN(CCc2ccccc2)CC1` the value was > 0.0443 mg/mL. For `CN(C)/C=N/c1ncc(C(=O)OC(C)(C)C)s1` the value was > 0.0383 mg/mL; for `Cc1ccc(S(=O)(=O)Nc2ccsc2C#N)cc1`, > 0.0418 mg/mL; for `O=C(Nc1ccc(Cl)cc1Cl)c1ccc(Br)o1`, < 0.0007 mg/mL. On to `O=C1C(=O)N(CCS(=O)(=O)c2ccccc2)c2ccccc21`, for which the solubility (kinetic) was > 0.0473 mg/mL. For `Cc1cc(NC(=O)C(C)Oc2ccc(Cl)cc2Cl)no1` (stereo not given) the value was 0.0091 mg/mL (≈ 28.9 µM); for `CC(C)(/C=N/O)N(O)C=C1C=CC(=O)C=C1`, > 0.0333 mg/mL. Next, `CC1(c2ccc([N+](=O)[O-])cc2)NC(=O)NC1=O` (stereo not given): > 0.0353 mg/mL. For `Cc1ccc(CN(C)c2nc(-c3cccnc3)nc3ccccc23)o1` the value was 0.0155 mg/mL (≈ 46.9 µM); for `O=C(NCCc1ccccc1)c1ccccc1Cl`, > 0.039 mg/mL. In the case of `CCOC(=O)C1=C(N)Oc2cc(O)ccc2C1c1ccccc1` (stereo not given), the solubility (kinetic) was < 0.0007 mg/mL. `Cc1ccccc1C(=O)Nc1ccc2c(c1)OCCO2`: the solubility (kinetic) was > 0.0404 mg/mL.

Consider `COC(=O)C(Cc1ccccc1)N1CCS(=O)(=O)CC1` (stereo not given), for which the solubility (kinetic) was > 0.0446 mg/mL. Next, `O=C(Nc1nc2ccsc2c(=O)s1)c1ccc(F)cc1`: < 0.0003 mg/mL; `CCCC(=O)C1=C(N(C)c2ccccc2)CC(C)(C)CC1=O`: 0.0325 mg/mL (≈ 109 µM). For `Cl.O=C(CCN1CCN(c2ccccc2F)CC1)c1ccc(Br)cc1` the value was 0.0423 mg/mL. Consider `NS(=O)(=O)c1ccc(CCNC(=O)Cc2ccc(Cl)cc2)cc1`, for which the kinetic solubility was > 0.0529 mg/mL. For `Cc1ccccc1NC(=O)c1ccno1` the value was 0.0235 mg/mL (≈ 116 µM); for `Nc1cc(=O)[nH]c(SCC(=O)Nc2cc(Cl)ccc2Cl)n1`, 0.0035 mg/mL (≈ 10.1 µM). For `COC(=O)C1CCN(CC(=O)Nc2ccc3c(c2)OCCO3)CC1` the value was > 0.0502 mg/mL.

As to `CN1CCC(N(C)C(=O)c2ccc(Cl)c(S(=O)(=O)N(C)c3ccc(Cl)cc3)c2)CC1`, the kinetic solubility was > 0.0706 mg/mL.

On to `O=C(/C=C/c1ccco1)NCC1COc2ccccc2O1` (stereo not given), for which the solubility (kinetic) was > 0.0428 mg/mL. For `NC(=O)c1ccc(OCC(F)(F)F)nc1` the value was 0.0311 mg/mL (≈ 141 µM); for `O=C(CSC(=S)N1CCSCC1)c1ccc(Cl)cc1`, < 0.0007 mg/mL. For `Cc1ccnc(NC(=O)c2cccc3ccccc23)c1`, the kinetic solubility was found to be 0.0061 mg/mL (≈ 23.3 µM). `COc1ccc(-n2c(=S)[nH]c(=O)c3cccnc32)cc1` had a solubility (kinetic) of 0.011 mg/mL (≈ 38.6 µM). Compound `COc1ccccc1C(=O)Nc1cccc2nc(C)ccc12` displayed a kinetic solubility of 0.0391 mg/mL (≈ 134 µM). Next, `CN(C)/C=N/c1nc(-c2ccc3ccccc3c2)cs1`: 0.016 mg/mL (≈ 56.9 µM). For `COc1c(C)cccc1C(=O)NCc1ccc2c(c1)OCO2` the value was > 0.0449 mg/mL; for `COc1cccc(NC(=O)CCN2C(=O)c3cccc([N+](=O)[O-])c3C2=O)c1`, > 0.0554 mg/mL; for `COC(=O)c1ccc(NC(=O)c2ccc3nsnc3c2)cc1`, 0.0013 mg/mL (≈ 4.15 µM). Next, `Cn1ccnc1SCC(=O)Nc1nc2c(F)c(F)c(F)cc2s1`: 0.0006 mg/mL (≈ 1.67 µM); `C=CCSc1ncnc2c1oc1nc3c(cc12)COC(C)(C)C3`: 0.0013 mg/mL (≈ 3.97 µM). The compound `COc1ccc2[nH]c(=O)c(CNc3cc(C)ccc3C)cc2c1` came in with a solubility (kinetic) of 0.0018 mg/mL (≈ 5.84 µM). On to `c1ccc(N2CCN(Cc3nc4ccccc4[nH]3)CC2)nc1`, for which the kinetic solubility came to 0.0413 mg/mL (≈ 141 µM).

In turn, `Cc1cccc(NC(=O)c2ccc(N3C(=O)C4CCCCC4C3=O)cc2)c1C` (stereo not given) registered a solubility (kinetic) of 0.0206 mg/mL (≈ 54.7 µM). As to `O=CN1CCN(C(=O)c2cccc3c2-c2ccccc2C3=O)CC1`, the kinetic solubility was > 0.0481 mg/mL. Take `Cc1cc(C)nc(NC2=NCCN2C(=S)Nc2c(C)cccc2C)n1`: the kinetic solubility came out at 0.0177 mg/mL (≈ 49.9 µM).

Take `Cc1cc(Cl)ccc1C(=O)C1CCCN(Cc2ccon2)C1` (stereo not given): the kinetic solubility amounted to 0.0463 mg/mL (≈ 145 µM).

Turning to `NS(=O)(=O)c1ccc(NC(=O)Nc2ccc(C(F)(F)F)cc2)cc1`, the solubility (kinetic) was < 0.0003 mg/mL. As to `O=C(O)c1cc(S(=O)(=O)N2CCCCC2)ccc1N1CCOCC1`, the kinetic solubility was > 0.0532 mg/mL. Next, `Cc1ccc(C(=O)NC(C)c2ccncc2)o1` (stereo not given): > 0.0345 mg/mL. In the case of `COc1ccc(NC(=O)/C=C/c2cccc(C(F)(F)F)c2)cn1`, the solubility (kinetic) was 0.0053 mg/mL (≈ 16.4 µM). For `CCCC(NC(=O)c1ccc(Br)o1)c1nc2ccccc2[nH]1` (stereo not given) the value was 0.0062 mg/mL (≈ 17.1 µM). Next, `CC(=O)Nc1ccc(NC(=O)c2cc(-n3cnnc3)ccc2Cl)cc1`: > 0.0534 mg/mL; `Cc1nc(Nc2ccccc2)sc1C(=O)Nc1ccccc1`: 0.0016 mg/mL (≈ 5.17 µM); `CC(=O)c1sc(NC(=O)c2cccs2)nc1C`: 0.002 mg/mL (≈ 7.51 µM). In the case of `CCN(CC(=O)N1CCOCC1)S(=O)(=O)c1ccccc1`, the kinetic solubility is > 0.0469 mg/mL. Next, `Nc1nc(-c2ccccc2)c(C(=O)Nc2ccccc2)s1`: 0.0094 mg/mL (≈ 31.8 µM); `CCN(CC)CC#CCC(O)(c1ccccc1)c1ccccc1`: > 0.0461 mg/mL. For `COc1ccc(CNC(=O)COC(=O)c2ccc(C)c(S(=O)(=O)N3CCOCC3)c2)cc1` the value was 0.0078 mg/mL (≈ 16.9 µM); for `COc1ccc(CC(=O)OCC(=O)NC2CCCCC2)cc1`, > 0.0458 mg/mL.

Consider `CCOC(=O)C(Cc1ccccc1)C(=O)NCc1cccnc1` (stereo not given), for which the solubility (kinetic) was > 0.0469 mg/mL. For `Cc1cc(N2CCN(C)CC2)nc(-c2ccccc2O)n1` the value was > 0.0427 mg/mL; for `COc1ccc2c(c1)c(C(=O)O)c(C)n2CCc1ccc(OC)c(OC)c1`, > 0.0554 mg/mL. With `Cc1noc(C)c1COC(=O)c1csc2c1CCCC2`, the kinetic solubility was 0.0083 mg/mL (≈ 28.5 µM).

The compound `O=C(NCC(O)c1ccc2ccccc2c1)c1c(F)cccc1F` (stereo not given) displayed a solubility (kinetic) of 0.0419 mg/mL (≈ 128 µM).

With `O=C(Cc1ccsc1)Nc1ccc2c(c1)OCO2`, the kinetic solubility is > 0.0392 mg/mL. Next, `Cc1ccc(CC(=O)NCCC(=O)O)cc1`: > 0.0332 mg/mL.

Take `CN1CCN(C(=O)/C=C/c2ccc(C#N)cc2)CC1`: the solubility (kinetic) was > 0.0383 mg/mL. Next, `NC(=O)C1CCN(C(=O)C2CC(=O)N(c3ccc(F)cc3)C2)CC1` (stereo not given): 0.0265 mg/mL (≈ 79.5 µM).
